From patent publication US20230348422A1, “ALBICIDIN DERIVATIVES, THEIR USE AND SYNTHESIS” (TECHNISCHE UNIVERSITÄT BERLIN, priority 2020, published 2023)
≈ marks a conversion by molar mass, not a printed value. Like-named read-outs stand apart in the source and are kept apart here.

Assays:
Assay in all cases: Microdilution assay, MIC
Type in all cases: cell-based
M. phlei DSM 750 = conditions: Mycolicibacterium phlei, read-out: MIC M. phlei DSM 750
E. coli BW25113 = conditions: Escherichia coli, read-out: MIC E. coli BW25113
B. subtilis DSM 10 = conditions: Bacillus subtilis, read-out: MIC B. subtilis DSM 10
Experimental: (§1) The tests were performed using the micro dilution method.
(§2) The determination of MIC values was performed according to the ninth edition of the Approved Standard M07-A9 (CLSI. Methods for Dilution Antimicrobial Susceptibility Tests for Bacteria That Grow Aerobically; Approved Standard-Ninth Edition. CLSI document M07-A9. Wayne, PA: Clinical and Laboratory Standards Institute; 2012.)
(§3) The test was carried out for four different bacterial strains (E. coli DSM 1116 [gram negative], B. subtilis DSM 10 [gram positive], M. luteus DSM 1790 [gram positive], S. typhimurium TA100 [gram negative]). 20 μL of cryo stock of each strain were inoculated in 20 mL of LB media (Lysogeny broth: 10 g/L peptone, 5 g/L yeast extract, 5 g/L NaCl) followed by incubation over night at 37° C., 200 rpm. The test inoculum was adjusted by the 0.5 McFarland Standard (OD625 from 0.08 to 0.1). Within 15 min of preparation, the adjusted inoculum suspension was diluted in MHBII media (BBL TM Mueller-Hinton Broth II, Becton, Dickinson and Company, New Jersey/USA) so that each well contained approximately 5×10^5 CFU/mL in a final volume of 100 μL. 95 μL of the inoculum were applied per well and 5 μL of the (diluted) antibiotic substance were added.
(§4) Previously the dry antibiotic compounds were dissolved in DMSO (100%) with a concentration of 2560 μg/mL and the resulting stock solutions were further diluted in DMSO (100%). 5 μL of each antibiotic dilution were applied to the microdilution tray to reach final concentrations of 64 μg/mL to 0.008 μg/mL. One row of each well plate was left as a growth control without antibiotic substances and another row of the microdilution tray was used as sterility control (only MHB II-media). The antimicrobial effect of the solvent (DMSO) was tested by adding 5 μL DMSO to several wells without antibiotics. Purity check and cell titer control were performed according to International Standard M07-A9 on Mueller-Hinton II Agar (Mueller Hinton II Broth, 15 g/L agar-agar). Both microdilution trays and agar plates were incubated at 37° C. for 20 h and subsequently analyzed visually.
(§5) The potency of an antibiotic is determined by the minimum inhibitory concentration (MIC). Contrary to intuition, a particularly low value is equated with a high potency.

E. coli DSM 1116 = conditions: Escherichia coli, read-out: MIC E. coli DSM 1116
Experimental: as §1, §2, §3, §4, §5

S. typhimurium TA 100 = conditions: Salmonella enterica, 20 h, read-out: MIC S. typhimurium TA 100
Experimental: as §1, §2, §3, §4, §5

M. luteus DSM 1790 = conditions: Micrococcus luteus, read-out: MIC M. luteus DSM 1790
Experimental: as §1, §2, §3, §4, §5

[1] = DSM750, Gram-positive, MHBII media, 37° C., 20 h
[2] = BW25113, Gram-negative, MHBII media, 37° C., 20 h
[3] = DSM10, Gram-positive, MHBII media, 37° C., 20 h
[4] = DSM1116, Gram-negative, MHBII media, 37° C., 20 h
[5] = Gram-negative, MHBII media, 37° C.
[6] = DSM1790, Gram-positive, MHBII media, 37° C., 20 h

Row | Compound | MIC (M. phlei DSM 750; DSM750, 20 h) [µg/mL] | MIC (E. coli BW25113; BW25113, 20 h) [µg/mL] | MIC (B. subtilis DSM 10; DSM10, 20 h) [µg/mL] | MIC (E. coli DSM 1116; DSM1116, 20 h) [µg/mL] | MIC (S. typhimurium TA 100) [µg/mL] | MIC (M. luteus DSM 1790; DSM1790, 20 h) [µg/mL] | MIC (M. phlei DSM 750; [1]) [µg/mL] | MIC (E. coli BW25113; [2]) [µg/mL] | MIC (B. subtilis DSM 10; [3]) [µg/mL] | MIC (E. coli DSM 1116; [4]) [µg/mL] | MIC (S. typhimurium TA 100; [5]) [µg/mL] | MIC (M. luteus DSM 1790; [6]) [µg/mL]
1 | COc1c(NC(=O)c2ccc(NC(=O)c3ccc(NC(=O)[C@H](Cc4cnn[nH]4)NC(=O)c4ccc(C#Cc5ccc(C#N)cc5)cc4)cc3)c(OC)c2O)ccc(C(=O)O)c1O [Compound 1] | 1 (≈ 1.2 µM) | 0.031 (≈ 0.0371 µM) | 0.25 (≈ 0.299 µM) | ≤ 0.016 | ≤ 0.016 | 0.25 (≈ 0.299 µM) |  |  |  |  |  | 
2 | COc1ccc(C#Cc2ccc(C(=O)N[C@@H](Cc3cnn[nH]3)C(=O)Nc3ccc(C(=O)Nc4ccc(C(=O)Nc5ccc(C(=O)O)c(O)c5OC)c(O)c4OC)cc3)cc2)cc1 [Compound 2a] |  |  |  |  |  |  | 1 (≈ 1.19 µM) | 0.063 (≈ 0.075 µM) | 0.25 (≈ 0.298 µM) | 0.063 (≈ 0.075 µM) | ≤ 0.016 | 0.5 (≈ 0.595 µM)
3 | COc1c(NC(=O)c2ccc(NC(=O)c3ccc(NC(=O)[C@H](Cc4cnn[nH]4)NC(=O)c4ccc(/C=C/c5ccc(O)cc5)cc4)cc3)c(OC)c2O)ccc(C(=O)O)c1O [Compound 3] |  |  |  |  |  |  | 4 (≈ 4.83 µM) | 0.25 (≈ 0.302 µM) | 0.5 (≈ 0.604 µM) | 0.5 (≈ 0.604 µM) | 0.125 (≈ 0.151 µM) | 1 (≈ 1.21 µM)
4 | COc1ccc(C#Cc2ccc(C(=O)N[C@@H](Cc3cnn[nH]3)C(=O)Nc3ccc(C(=O)Nc4ccc(C(=O)Nc5ccc(C(=O)O)c(O)c5OC)c(O)c4OC)cc3)cc2)cn1 [Compound 4] |  |  |  |  |  |  | 1 (≈ 1.19 µM) | 0.063 (≈ 0.0749 µM) | 0.25 (≈ 0.297 µM) | 0.063 (≈ 0.0749 µM) | ≤ 0.016 | 0.5 (≈ 0.595 µM)
5 | COc1c(NC(=O)c2ccc(NC(=O)c3ccc(NC(=O)[C@H](Cc4cnn[nH]4)NC(=O)c4ccc(C#Cc5ccc(O)cc5)cc4)cc3)c(OC)c2O)ccc(C(=O)O)c1O [Compound 5] |  |  |  |  |  |  | 1 (≈ 1.21 µM) | 0.125 (≈ 0.151 µM) | 2 (≈ 2.42 µM) | 0.063 (≈ 0.0763 µM) | 0.031 (≈ 0.0375 µM) | 2 (≈ 2.42 µM)
6 | COc1c(NC(=O)c2ccc(NC(=O)c3ccc(NC(=O)[C@H](Cc4cnn[nH]4)NC(=O)c4ccc(C#Cc5ccc(F)cc5)cc4)cc3)c(OC)c2O)ccc(C(=O)O)c1O [Compound 6] |  |  |  |  |  |  | 0.5 (≈ 0.604 µM) | 0.031 (≈ 0.0374 µM) | 0.25 (≈ 0.302 µM) | 0.031 (≈ 0.0374 µM) | ≤ 0.016 | 0.25 (≈ 0.302 µM)
7 | COc1c(NC(=O)c2ccc(NC(=O)c3ccc(NC(=O)[C@H](Cc4cnn[nH]4)NC(=O)c4ccc(CCc5ccc(O)cc5)cc4)cc3)c(OC)c2O)ccc(C(=O)O)c1O [Compound 9] |  |  |  |  |  |  | 4 (≈ 4.82 µM) | 0.25 (≈ 0.301 µM) | 2 (≈ 2.41 µM) | 0.5 (≈ 0.603 µM) | 0.125 (≈ 0.151 µM) | 2 (≈ 2.41 µM)
8 | C#Cc1ccc(C(=O)Nc2ccc(C(=O)N[C@@H](Cc3cnn[nH]3)C(=O)Nc3ccc(C(=O)Nc4ccc(C(=O)Nc5ccc(C(=O)O)c(O)c5OC)c(O)c4OC)cc3)cc2)cc1 [Compound 14] |  |  |  |  |  |  | 1 (≈ 1.17 µM) | 0.063 (≈ 0.0739 µM) | 0.5 (≈ 0.586 µM) | 0.063 (≈ 0.0739 µM) | 0.063 (≈ 0.0739 µM) | 0.5 (≈ 0.586 µM)
9 | COc1c(NC(=O)c2ccc(NC(=O)c3ccc(NC(=O)[C@H](Cc4cnn[nH]4)NC(=O)c4ccc(NC(=O)c5ccc(-c6nnn[nH]6)cc5)cc4)cc3)c(OC)c2O)ccc(C(=O)O)c1O [Compound 15] |  |  |  |  |  |  | 8 (≈ 8.92 µM) | 0.25 (≈ 0.279 µM) | 2 (≈ 2.23 µM) | 0.25 (≈ 0.279 µM) | 0.063 (≈ 0.0702 µM) | 8 (≈ 8.92 µM)
10 | COc1c(/C=C(\F)c2ccc(NC(=O)[C@H](Cc3cnn[nH]3)NC(=O)c3ccc(NC(=O)/C(C)=C/c4ccc(O)cc4)cc3)cc2)ccc(C(=O)Nc2ccc(C(=O)O)c(O)c2OC)c1O [Compound 16] | 0.25 (≈ 0.282 µM) | 0.063 (≈ 0.0711 µM) | 0.031 (≈ 0.035 µM) | 0.063 (≈ 0.0711 µM) | 0.031 (≈ 0.035 µM) | 0.063 (≈ 0.0711 µM) |  |  |  |  |  | 
11 | COc1c(/C=C/c2ccc(NC(=O)[C@H](Cc3cnn[nH]3)NC(=O)c3ccc(NC(=O)/C(C)=C/c4ccc(O)cc4)cc3)cc2)ccc(C(=O)Nc2ccc(C(=O)O)c(O)c2OC)c1O [Compound 17] |  |  |  |  |  |  | 0.5 (≈ 0.576 µM) | 0.125 (≈ 0.144 µM) | 0.063 (≈ 0.0726 µM) | 0.125 (≈ 0.144 µM) | 0.063 (≈ 0.0726 µM) | 0.125 (≈ 0.144 µM)
12 | COc1c(C#Cc2ccc(NC(=O)[C@H](Cc3cnn[nH]3)NC(=O)c3ccc(NC(=O)/C(C)=C/c4ccc(O)cc4)cc3)cc2)ccc(C(=O)Nc2ccc(C(=O)O)c(O)c2OC)c1O [Compound 18] |  |  |  |  |  |  | 0.5 (≈ 0.577 µM) | 0.063 (≈ 0.0728 µM) | 0.063 (≈ 0.0728 µM) | 0.063 (≈ 0.0728 µM) | 0.016 (≈ 0.0185 µM) | 0.25 (≈ 0.289 µM)
13 | COc1c(NC(=O)c2ccc(NC(=O)c3ccc(NC(=O)[C@H](Cc4cnn[nH]4)NC(=O)c4ccc(NC(=N)c5ccc(O)cc5)cc4)cn3)c(OC)c2O)ccc(C(=O)O)c1O [Compound 32] |  |  |  |  |  |  | 8 (≈ 9.47 µM) | 0.25 (≈ 0.296 µM) | 2 (≈ 2.37 µM) | 0.5 (≈ 0.592 µM) | 0.125 (≈ 0.148 µM) | 4 (≈ 4.73 µM)
14 | COc1c(NC(=O)c2ccc(NC(=O)c3ccc(NC(=O)[C@H](Cc4cnn[nH]4)NC(=O)c4ccc5[nH]c(-c6ccc(O)cc6)nc5c4)cn3)c(OC)c2O)ccc(C(=O)O)c1O [Compound 33] |  |  |  |  |  |  | ≥ 8 | ≥ 8 | ≥ 8 | ≥ 8 | ≥ 8 | ≥ 8
